In paper PMC4054929 (Bioorganic & medicinal chemistry, 2014):
“And” between values parts separate entries of the source, which are not always exact repeats. Identical values can stand only once.

Key:
[1] = In vivo biodistribution and regional brain uptake in rats; settings: male SD rats, i.v.
PDE10A [2] = settings: unlabeled compounds; cited from earlier work
PDE10A [3] = target: PDE10A (Rattus norvegicus, UniProt Q9QYJ6)
PDE10A [4] = settings: NHP brain
[5] = rats pretreated with MP-10 2.0 mg/kg 5 min prior to tracer, 30 min p.i.

Chain of PDE10A (Rattus norvegicus, UniProt Q9QYJ6) (Q9QYJ6 whole entry): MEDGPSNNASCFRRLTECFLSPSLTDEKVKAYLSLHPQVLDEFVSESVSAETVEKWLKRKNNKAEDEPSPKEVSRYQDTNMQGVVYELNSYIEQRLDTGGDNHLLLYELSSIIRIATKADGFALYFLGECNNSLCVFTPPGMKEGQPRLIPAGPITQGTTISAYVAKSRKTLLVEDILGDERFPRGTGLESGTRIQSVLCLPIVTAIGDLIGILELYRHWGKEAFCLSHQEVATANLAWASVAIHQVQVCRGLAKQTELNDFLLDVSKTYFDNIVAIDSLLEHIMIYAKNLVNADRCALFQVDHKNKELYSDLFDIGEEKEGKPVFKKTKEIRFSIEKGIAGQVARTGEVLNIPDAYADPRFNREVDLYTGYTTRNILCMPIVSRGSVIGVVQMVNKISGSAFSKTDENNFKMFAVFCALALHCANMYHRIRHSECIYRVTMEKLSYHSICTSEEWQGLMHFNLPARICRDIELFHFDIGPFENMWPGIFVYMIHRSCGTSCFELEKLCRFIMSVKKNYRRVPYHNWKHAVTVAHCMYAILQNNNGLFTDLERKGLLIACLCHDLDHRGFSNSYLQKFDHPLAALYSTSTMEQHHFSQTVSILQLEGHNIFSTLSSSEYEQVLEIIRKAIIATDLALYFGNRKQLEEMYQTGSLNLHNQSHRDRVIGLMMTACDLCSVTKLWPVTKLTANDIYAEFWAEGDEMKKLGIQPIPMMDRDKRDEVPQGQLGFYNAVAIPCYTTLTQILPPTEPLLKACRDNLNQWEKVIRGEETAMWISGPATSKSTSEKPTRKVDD

Cn1cc(-c2ccncc2)c(-c2ccc(OCc3ccc4cc(O[11CH3])ccc4n3)cc2)n1 [[^11C]3, 6-(methoxy-^11C)-2-((4-(1-methyl-4-(pyridin-4-yl)-1H-pyrazol-3-yl)phenoxy)methyl)quinoline]
Biodistribution, blood ([1]; 5 min p.i.): 0.282 ± 0.025 %ID/gram
Biodistribution, cerebellum ([1]; 5 min p.i.): 0.251 ± 0.031 %ID/gram
Biodistribution, fat ([1]; 5 min p.i.): 0.139 ± 0.038 %ID/gram
Biodistribution, heart ([1]; 5 min p.i.): 0.416 ± 0.026 %ID/gram
Biodistribution, kidney ([1]; 5 min p.i.): 1.333 ± 0.282 %ID/gram
Biodistribution, liver ([1]; 5 min p.i.): 5.357 ± 0.989 %ID/gram
Biodistribution, lung ([1]; 5 min p.i.): 0.744 ± 0.241 %ID/gram
Biodistribution, muscle ([1]; 5 min p.i.): 0.151 ± 0.027 %ID/gram
Biodistribution, striatum ([1]; 5 min p.i.): 0.293 ± 0.075 ^b %ID/gram
Biodistribution, total brain ([1]; 5 min p.i.): 0.249 ± 0.037 %ID/gram
Biodistribution, blood ([1]; 30 min p.i. (control)): 0.275 ± 0.041 %ID/gram
Biodistribution, cerebellum ([1]; 30 min p.i. (control)): 0.090 ± 0.018 %ID/gram
Biodistribution, fat ([1]; 30 min p.i. (control)): 0.221 ± 0.060 %ID/gram
Biodistribution, heart ([1]; 30 min p.i. (control)): 0.264 ± 0.032 %ID/gram
Biodistribution, kidney ([1]; 30 min p.i. (control)): 0.883 ± 0.123 %ID/gram
Biodistribution, liver ([1]; 30 min p.i. (control)): 3.172 ± 0.606 %ID/gram
Biodistribution, lung ([1]; 30 min p.i. (control)): 0.389 ± 0.082 %ID/gram
Biodistribution, muscle ([1]; 30 min p.i. (control)): 0.175 ± 0.009 %ID/gram
Biodistribution, striatum ([1]; 30 min p.i. (control)): 0.160 ± 0.023 ^a %ID/gram
Biodistribution, total brain ([1]; 30 min p.i. (control)): 0.105 ± 0.011 %ID/gram
Biodistribution, blood ([1]; 60 min p.i.): 0.210 ± 0.023 %ID/gram
Biodistribution, cerebellum ([1]; 60 min p.i.): 0.066 ± 0.008 %ID/gram
Biodistribution, fat ([1]; 60 min p.i.): 0.135 ± 0.026 %ID/gram
Biodistribution, heart ([1]; 60 min p.i.): 0.182 ± 0.020 %ID/gram
Biodistribution, kidney ([1]; 60 min p.i.): 0.637 ± 0.052 %ID/gram
Biodistribution, liver ([1]; 60 min p.i.): 1.724 ± 0.510 %ID/gram
Biodistribution, lung ([1]; 60 min p.i.): 0.249 ± 0.015 %ID/gram
Biodistribution, muscle ([1]; 60 min p.i.): 0.129 ± 0.006 %ID/gram
Biodistribution, striatum ([1]; 60 min p.i.): 0.089 ± 0.014 ^a %ID/gram
Biodistribution, total brain ([1]; 60 min p.i.): 0.074 ± 0.005 %ID/gram

COc1cc(COc2ccc(-c3nn(C)cc3-c3ccncc3)cc2)nc2ccccc12 [Compound 2]
IC50 (PDE10A [2]): 0.28 ± 0.06 nM

Cn1cc(-c2ccncc2)c(-c2ccc(OCc3nc4ccccc4cc3O[11CH3])cc2)n1 [[^11C]1, 3-(methoxy-^11C)-2-((4-(1-methyl-4-(pyridin-4-yl)-1H-pyrazol-3-yl)phenoxy)methyl)quinoline]
Distribution, blood, MP-10 block (PDE10A [3]; [5]): 0.407 ± 0.026 %ID/gram
Distribution, cerebellum, MP-10 block (PDE10A [3]; [5]): 0.119 ± 0.006 %ID/gram
Distribution, fat, MP-10 block (PDE10A [3]; [5]): 1.353 ± 0.202 %ID/gram
Distribution, heart, MP-10 block (PDE10A [3]; [5]): 0.340 ± 0.036 %ID/gram
Distribution, kidney, MP-10 block (PDE10A [3]; [5]): 1.523 ± 0.162 %ID/gram
Distribution, liver, MP-10 block (PDE10A [3]; [5]): 5.781 ± 0.696 %ID/gram
Distribution, lung, MP-10 block (PDE10A [3]; [5]): 0.404 ± 0.024 %ID/gram
Distribution, muscle, MP-10 block (PDE10A [3]; [5]): 0.257 ± 0.026 %ID/gram
Distribution, striatum, MP-10 block (PDE10A [3]; [5]): 0.294 ± 0.013 %ID/gram
Distribution, total brain, MP-10 block (PDE10A [3]; [5]): 0.128 ± 0.003 %ID/gram
decrease of striatum: cerebellum ratio by MP-10 pretreatment (PDE10A [3]; rats, MP-10 2 mg/kg 5 min prior to tracer, 30 min p.i.): 50%
striatal binding after blocking dose of MP-10 (PDE10A [3]; rats, MP-10 2 mg/kg i.v. 5 min prior to tracer, p < 0.05): significant reduction
Biodistribution, blood ([1]; 5 min p.i.): 0.679 ± 0.116 %ID/gram
Biodistribution, cerebellum ([1]; 5 min p.i.): 0.229 ± 0.039 %ID/gram
Biodistribution, fat ([1]; 5 min p.i.): 0.935 ± 0.462 %ID/gram
Biodistribution, heart ([1]; 5 min p.i.): 0.733 ± 0.039 %ID/gram
Biodistribution, kidney ([1]; 5 min p.i.): 4.354 ± 0.473 %ID/gram
Biodistribution, liver ([1]; 5 min p.i.): 11.005 ± 0.758 %ID/gram
Biodistribution, lung ([1]; 5 min p.i.): 1.602 ± 0.509 %ID/gram
Biodistribution, muscle ([1]; 5 min p.i.): 0.412 ± 0.064 %ID/gram
Biodistribution, striatum ([1]; 5 min p.i.): 0.488 ± 0.101 ^a %ID/gram
Biodistribution, total brain ([1]; 5 min p.i.): 0.231 ± 0.038 %ID/gram
Biodistribution, blood ([1]; 30 min p.i. (control)): 0.321 ± 0.021 %ID/gram
Biodistribution, cerebellum ([1]; 30 min p.i. (control)): 0.097 ± 0.016 %ID/gram
Biodistribution, fat ([1]; 30 min p.i. (control)): 0.851 ± 0.314 %ID/gram
Biodistribution, heart ([1]; 30 min p.i. (control)): 0.296 ± 0.038 %ID/gram
Biodistribution, kidney ([1]; 30 min p.i. (control)): 1.647 ± 0.459 %ID/gram
Biodistribution, liver ([1]; 30 min p.i. (control)): 7.345 ± 1.472 %ID/gram
Biodistribution, lung ([1]; 30 min p.i. (control)): 0.408 ± 0.083 %ID/gram
Biodistribution, muscle ([1]; 30 min p.i. (control)): 0.244 ± 0.073 %ID/gram
Biodistribution, striatum ([1]; 30 min p.i. (control)): 0.452 ± 0.086 ^a %ID/gram and 0.452 ± 0.086 %ID/gram
Biodistribution, total brain ([1]; 30 min p.i. (control)): 0.133 ± 0.024 %ID/gram
Biodistribution, blood ([1]; 60 min p.i.): 0.275 ± 0.028 %ID/gram
Biodistribution, cerebellum ([1]; 60 min p.i.): 0.064 ± 0.006 %ID/gram
Biodistribution, fat ([1]; 60 min p.i.): 0.500 ± 0.087 %ID/gram
Biodistribution, heart ([1]; 60 min p.i.): 0.199 ± 0.013 %ID/gram
Biodistribution, kidney ([1]; 60 min p.i.): 1.275 ± 0.141 %ID/gram
Biodistribution, liver ([1]; 60 min p.i.): 6.398 ± 0.945 %ID/gram
Biodistribution, lung ([1]; 60 min p.i.): 0.299 ± 0.042 %ID/gram
Biodistribution, muscle ([1]; 60 min p.i.): 0.142 ± 0.014 %ID/gram
Biodistribution, striatum ([1]; 60 min p.i.): 0.380 ± 0.048 ^a %ID/gram
Biodistribution, total brain ([1]; 60 min p.i.): 0.095 ± 0.008 %ID/gram
blood–brain-barrier penetration (PDE10A [4]): readily penetrate the blood–brain-barrier
